Assay results published in patent publication US9220705B2, “Method of treating colorectal cancer” (priority 2013, dated 2015).
Entries after “also recorded” stand apart in the source; their conditions may differ.

Legend:
[1] = system: LoVo-OXP colorectal adenocarcinoma xenografts; assay: In vivo anticancer activity, oxaliplatin-resistant colorectal xenograft; design: species or system BALB/c nu/nu mice
Protocol: (§1) LoVo and LoVo-OXP tumor xenografts were established in 6-week-old BALB/c nu/nu mice by injecting 1×10^7 tumor cells subcutaneously (100 μL in serum free medium) on the left dorsal flank. After 24 h from tumor implantation, mice were randomly divided into five groups (6 animals per group, 8 controls). Chemotherapy was delayed until the tumor became palpable (day 14). From day 14, 1 was dosed daily at 3 mg/kg ip whereas OXP was dosed daily at 2 mg/kg ip. Measurements of body weights and tumor volumes were recorded every 2 days until the experimental endpoint. The long axis (L) and the short axis (S) were measured with caliper, and the tumor volume (V) was calculated using the following equation: V=S×S×L/2. At day 30, animals were sacrificed, and the inhibition of tumor growth was determined by comparing the volume of the control group and the treatment group expressed as % referred to the control animals.
(§2) All the values are the means±S.D. of not less than three measurements. Multiple comparisons were made by Tukey-Kramer test (**p<0.01; *p<0.05).

[2] = system: LoVo-OXP cells; assay: Cellular platinum uptake by GF-AAS; format: cell-based, human; conditions: LoVo-OXP resistant cells, 5 μM, 6, 24, 48 h, FIG. 2 panel B, compared with LoVo
Protocol: LoVo and LoVo-OXP cells (2×10^6) were seeded in 75 cm^2 flasks in growth medium (20 ml). After 24 h, the medium was replaced and the cells incubated for different times (6, 24 or 48 h) in the presence of the tested complexes. Cell monolayers were washed twice with cold PBS and harvested. Samples were subjected to three freezing/thawing cycles at −80° C., and then vigorously vortexed. Aliquots were removed for the determination of protein content by the BioRad protein assay (BioRad). The samples were treated with 1 mL of highly pure nitric acid (Pt: ≦0.01 μg×kg^−1, TraceSELECT® Ultra, Sigma Chemical Co.) and transferred into a microwave teflon vessel. Subsequently, samples were submitted to a standard procedure using a speed wave MWS-3 Berghof instrument (Eningen, Germany). After cooling, each mineralized sample was analyzed for platinum by using a Varian AA Duo graphite furnace atomic absorption spectrometer (Varian, Palo Alto, Calif.; USA) at the wavelength of […]. The calibration curve was obtained using known concentrations of standard solutions purchased from Sigma Chemical Co.
It is well-known that cellular uptake is an important factor influencing drug efficacy. […] The intracellular platinum was quantified by means of GF-AAS analysis and the results, expressed as μg metal mg^−1 of cellular proteins, are summarized in FIG. 2.

[3] = system: LoVo colorectal adenocarcinoma xenografts; assay: In vivo anticancer activity, oxaliplatin-sensitive colorectal xenograft; design: species or system BALB/c nu/nu mice; conditions: LoVo xenograft; daily ip day 14 to day 30; 1 at 3 mg/kg, OXP at 2 mg/kg; tumor volume at day 30
Protocol: as §1, §2

Structure (SMILES): O=C1[O][Pt-2]2([NH2+]C3CCCC[C@H]3[NH2+]2)[O]C1=O (stereo partly drawn) [oxaliplatin, [(1R,2R)-cyclohexane-1,2diamine](ethanedioato)platinum(II), reference compound]
- antitumor activity, times lower than that exerted by 1 ([1]; LoVo-OXP models): 2.4
- tumor growth inhibition ([1]; LoVo-OXP xenograft, daily ip day 14 to day 30, 1 at 3 mg/kg, OXP at 2 mg/kg, tumor volume at day 30): 24%
- intracellular platinum accumulation [2]: remarkably decreased; also recorded: decreases remarkably
- tumor growth inhibition [3]: 54%
